ChEMBL document CHEMBL1201862, “PubChem BioAssay data set” (2004)
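Following 48 hours of exposure in 96-well plates, responses at five concentrations were used to interpolate endpoints linearly. Abbreviation: GI50, concentration required for 50% inhibition of growth.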 The source made the active and inactive calls. Rule as the data show it: active = GI50 up to about 1.1 µM and inactive = higher.

What was measured:
Assay in all cases: inhibition of tumour cell growth, NCI panel, 48 h
EKVX = tested on: EKVX
NCI-H460 = tested on: NCI-H460
OVCAR-4 = tested on: OVCAR-4
UACC-62 = tested on: UACC-62
MDA-N = tested on: MDA-N
HOP-92 = tested on: HOP-92
MDA-MB-231 = tested on: MDA-MB-231
NCI/ADR-RES = tested on: NCI/ADR-RES
OVCAR-3 = tested on: OVCAR-3
COLO 205 = tested on: COLO 205
KM12 = tested on: KM12
SK-MEL-5 = tested on: SK-MEL-5
IGROV-1 = tested on: IGROV-1
SNB-19 = tested on: SNB-19
SK-OV-3 = tested on: SK-OV-3
SF-539 = tested on: SF-539
NCI-H522 = tested on: NCI-H522
SF-268 = tested on: SF-268
OVCAR-8 = tested on: OVCAR-8
MDA-MB-435 = tested on: MDA-MB-435
U-251 = tested on: U-251
HT-29 = tested on: HT-29
A549 = tested on: A549
ACHN = tested on: ACHN
HCT-116 = tested on: HCT-116
HCT-15 = tested on: HCT-15
SK-MEL-2 = tested on: SK-MEL-2
MCF7 = tested on: MCF7
TK-10 = tested on: TK-10
BT-549 = tested on: BT-549
RPMI-8226 = tested on: RPMI-8226
T47D = tested on: T47D
K562 = tested on: K562
RXF 393 = tested on: RXF 393
LOX IMVI = tested on: LOX IMVI
SK-MEL-28 = tested on: SK-MEL-28
SN12C = tested on: SN12C
HOP-62 = tested on: HOP-62
786-0 = tested on: 786-0
Hs-578T = tested on: Hs-578T
SF-295 = tested on: SF-295
PC-3 = tested on: PC-3
NCI-H226 = tested on: NCI-H226
MOLT-4 = tested on: MOLT-4
NCI-H23 = tested on: NCI-H23
UO-31 = tested on: UO-31
OVCAR-5 = tested on: OVCAR-5
SNB-75 = tested on: SNB-75
M14 = tested on: M14
Malme-3M = tested on: Malme-3M
HCC 2998 = tested on: HCC 2998
DU-145 = tested on: DU-145
UACC-257 = tested on: UACC-257
CAKI-1 = tested on: CAKI-1
SW-620 = tested on: SW-620
CCRF-CEM = tested on: CCRF-CEM
HL-60 = tested on: HL-60
A498 = tested on: A498

C=CCN(c1cc(OCc2ccccc2)c2c(c(C)cn2S(=O)(=O)c2ccc([N+](=O)[O-])cc2)c1[N+](=O)[O-])S(C)(=O)=O
GI50 (EKVX): > 100 µM (inactive)
GI50 (NCI-H460): > 100 µM (inactive)
GI50 (OVCAR-4): > 100 µM (inactive)
GI50 (UACC-62): > 100 µM (inactive)
GI50 (MDA-N): 4.07 µM (inactive)
GI50 (HOP-92): > 100 µM (inactive)
GI50 (MDA-MB-231): > 89.5 µM (inactive)
GI50 (NCI/ADR-RES): > 100 µM (inactive)
GI50 (OVCAR-3): > 100 µM (inactive)
GI50 (COLO 205): > 100 µM (inactive)
GI50 (KM12): 4.86 µM (inactive)
GI50 (SK-MEL-5): 43.7 µM (inactive)
GI50 (IGROV-1): > 100 µM (inactive)
GI50 (SNB-19): > 100 µM (inactive)
GI50 (SK-OV-3): > 100 µM (inactive)
GI50 (SF-539): > 100 µM (inactive)
GI50 (NCI-H522): > 100 µM (inactive)
GI50 (SF-268): > 100 µM (inactive)
GI50 (OVCAR-8): > 100 µM (inactive)
GI50 (MDA-MB-435): 1.47 µM (inactive)
GI50 (U-251): > 100 µM (inactive)
GI50 (HT-29): 8.77 µM (inactive)
GI50 (A549): > 84.5 µM (inactive)
GI50 (ACHN): > 100 µM (inactive)
GI50 (HCT-116): > 100 µM (inactive)
GI50 (HCT-15): 31.6 µM
GI50 (SK-MEL-2): > 100 µM (inactive)
GI50 (MCF7): > 100 µM (inactive)
GI50 (TK-10): > 100 µM (inactive)
GI50 (BT-549): > 100 µM (inactive)
GI50 (RPMI-8226): > 100 µM (inactive)
GI50 (T47D): > 100 µM (inactive)
GI50 (K562): 5.08 µM (inactive)
GI50 (RXF 393): > 100 µM (inactive)
GI50 (LOX IMVI): > 100 µM (inactive)
GI50 (SK-MEL-28): > 100 µM (inactive)
GI50 (SN12C): > 100 µM (inactive)
GI50 (HOP-62): > 100 µM (inactive)
GI50 (786-0): > 100 µM (inactive)
GI50 (Hs-578T): > 100 µM (inactive)
GI50 (SF-295): > 78.5 µM (inactive)
GI50 (PC-3): > 100 µM (inactive)
GI50 (NCI-H226): > 100 µM (inactive)
GI50 (MOLT-4): > 100 µM (inactive)
GI50 (NCI-H23): > 100 µM (inactive)
GI50 (UO-31): > 100 µM (inactive)
GI50 (OVCAR-5): > 100 µM (inactive)
GI50 (SNB-75): > 37.8 µM (inactive)
GI50 (M14): 29.1 µM (inactive)
GI50 (Malme-3M): > 100 µM (inactive)
GI50 (HCC 2998): > 100 µM (inactive)
GI50 (DU-145): > 100 µM (inactive)
GI50 (UACC-257): > 100 µM (inactive)
GI50 (CAKI-1): > 100 µM (inactive)

[O-][n+]1nc(N2CCOCC2)nc2ccccc21
GI50 (EKVX): > 100 µM (inactive)
GI50 (SW-620): > 100 µM (inactive)
GI50 (UACC-62): > 100 µM (inactive)
GI50 (MDA-N): > 100 µM (inactive)
GI50 (MDA-MB-231): > 100 µM (inactive)
GI50 (NCI/ADR-RES): > 100 µM (inactive)
GI50 (COLO 205): > 100 µM (inactive)
GI50 (KM12): > 100 µM (inactive)
GI50 (IGROV-1): > 100 µM (inactive)
GI50 (SNB-19): > 100 µM (inactive)
GI50 (SK-OV-3): > 100 µM (inactive)
GI50 (SF-539): > 100 µM (inactive)
GI50 (NCI-H522): > 100 µM (inactive)
GI50 (SF-268): > 100 µM (inactive)
GI50 (OVCAR-8): > 100 µM (inactive)
GI50 (MDA-MB-435): > 100 µM (inactive)
GI50 (U-251): > 100 µM (inactive)
GI50 (HT-29): > 100 µM (inactive)
GI50 (A549): > 100 µM (inactive)
GI50 (CCRF-CEM): > 100 µM (inactive)
GI50 (ACHN): > 100 µM (inactive)
GI50 (HCT-116): > 100 µM (inactive)
GI50 (HCT-15): > 100 µM
GI50 (SK-MEL-2): > 100 µM (inactive)
GI50 (MCF7): > 100 µM (inactive)
GI50 (TK-10): 77.1 µM (inactive)
GI50 (BT-549): > 100 µM (inactive)
GI50 (RPMI-8226): > 100 µM (inactive)
GI50 (T47D): > 100 µM (inactive)
GI50 (K562): > 100 µM (inactive)
GI50 (RXF 393): 49.5 µM (inactive)
GI50 (LOX IMVI): > 100 µM (inactive)
GI50 (SK-MEL-28): > 100 µM (inactive)
GI50 (HL-60): > 100 µM (inactive)
GI50 (SN12C): > 100 µM (inactive)
GI50 (HOP-62): > 100 µM (inactive)
GI50 (786-0): > 100 µM (inactive)
GI50 (Hs-578T): > 100 µM (inactive)
GI50 (SF-295): > 100 µM (inactive)
GI50 (PC-3): > 100 µM (inactive)
GI50 (NCI-H226): > 100 µM (inactive)
GI50 (MOLT-4): > 100 µM (inactive)
GI50 (NCI-H23): > 100 µM (inactive)
GI50 (UO-31): > 100 µM (inactive)
GI50 (OVCAR-5): > 100 µM (inactive)
GI50 (SNB-75): > 100 µM (inactive)
GI50 (M14): > 100 µM (inactive)
GI50 (Malme-3M): > 100 µM (inactive)
GI50 (A498): 43.3 µM (inactive)
GI50 (HCC 2998): > 100 µM (inactive)
GI50 (DU-145): > 100 µM (inactive)
GI50 (UACC-257): > 100 µM (inactive)
GI50 (CAKI-1): > 100 µM (inactive)
